# Measured values as given in patent US20230181485A1, “Uses and Formulations of Cannabinoids” (priority 2020, published 2023).
# Where two headings read alike, the source gives them in different places.
# Experiments:
# IL-6 receptor = biological target: T1, IL-6 receptor (Homo sapiens, UniProt P08887); settings: preliminary clinical data; cited from earlier work
# T1 construct: host or cells: patients (in vivo)
# [1] = system: LPS-induced acute lung injury; settings: cited from earlier work
# microglial cells = settings: 1-16 μmol/l; cited from earlier work
# human neutrophils = settings: cited from earlier work
# [2] = systemic exposure after i.p. and oral application in mice and rats (Deiana et al.); type: in vivo; settings: 20 mg/kg, assuming dose-proportional plasma concentrations
# Method: A comparative investigation for systemic exposure after i.p. and oral application of CBD in mice and rats has shown that 120 mg/kg as a single dose leads to a maximum plasma concentration of 14,000 ng/ml in mice (S. Deiana et al. (2012). Plasma and brain pharmacokinetic profile of cannabidiol (CBD), cannabidivarine (CBDV), Delta(9)-tetrahydrocannabivarin (THCV) and cannabigerol (CBG) in rats and mice following oral and intraperitoneal administration and CBD action on obsessive-compulsive behaviour. Psychopharmacology (Berl) 219(3): 859-73).
# [3] = system: LPS-induced acute lung injury; settings: 20 mg/kg, 6 h after LPS; cited from earlier work
# [4] = healthy rats, cited from earlier work
# [5] = system: SARS-CoV-2 virus (isolate BetaCoV/Germany/BavPat1/2020 p. 1); assay: antiviral assay, Vero E6 cells with SARS-CoV-2, focus forming units; type: cell-based; settings: 24 h
# [6] = system: activated memory T cell line; settings: 1-5 μmol/l, cited from earlier work
# human mononuclear cells = settings: nanomolar or micromolar concentrations; cited from earlier work
# [7] = system: CD83 dendritic cell activation marker; settings: dendritic cells from individuals with HIV infection; cited from earlier work
# [8] = system: chemically induced acute hepatitis; settings: 25 mg/kg; cited from earlier work
# [9] = cited from earlier work
# [10] = mice; 120 mg/kg single dose; cited from earlier work
# IL-6 secretion = settings: majority of cellular models; cited from earlier work
# [11] = system: ischemia-reperfusion-induced kidney injury; settings: 10 mg/kg after induced kidney injury; cited from earlier work
# T1 sequence (P08887 20-468): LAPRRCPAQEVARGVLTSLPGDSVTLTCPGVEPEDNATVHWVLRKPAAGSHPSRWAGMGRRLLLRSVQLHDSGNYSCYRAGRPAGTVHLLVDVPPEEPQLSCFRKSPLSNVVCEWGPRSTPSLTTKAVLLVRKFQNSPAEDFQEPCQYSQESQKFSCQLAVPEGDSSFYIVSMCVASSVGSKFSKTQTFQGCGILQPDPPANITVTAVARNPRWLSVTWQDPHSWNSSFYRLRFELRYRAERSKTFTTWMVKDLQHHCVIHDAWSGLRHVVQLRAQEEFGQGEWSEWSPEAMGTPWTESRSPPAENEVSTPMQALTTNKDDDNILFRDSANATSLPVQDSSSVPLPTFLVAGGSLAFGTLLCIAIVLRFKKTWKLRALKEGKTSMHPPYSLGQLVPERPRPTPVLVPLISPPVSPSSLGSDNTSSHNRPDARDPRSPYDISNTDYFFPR
molecule,measurement,setting,value
tocilizumab: humanized monoclonal antibody against the IL-6 receptor,clinical effect in patients with severe SARS-CoV-2 pneumonia,IL-6 receptor,beneficial effects
"C=C(C)[C@@H]1CCC(C)=C[C@H]1c1c(O)cc(CCCCC)cc1O [CBD, 2-[(1R,6R)-3-methyl-6-(1-methylethenyl)-2-cyclohexen-1-yl]-5-pentyl-1,3-benzenediol]",number of leukocytes including macrophages and neutrophils in bronchoalveolar lavage fluid,"[1]; 20 mg/kg, mice after LPS-induced lung inflammation",decreases
same,"total leukocytes migration, myeloperoxidase activity, pro-inflammatory cytokine production including TNF-α and IL-6 and vascular permeability","[1]; 0.3-80 mg/kg intraperitoneal, 60 minutes before LPS instillation",significantly decreased
same,dose at which effects reached a nearly maximum extent,"[1]; prophylactic application, intraperitoneal",20 mg/kg
same,apoptosis in microglial cells,microglial cells,induces apoptosis
same,migration of human neutrophils,human neutrophils,inhibits
same,target peak exposure,[2],"2,300 ng/ml"
same,"mechanical lung function, leukocyte migration, myeloperoxidase activity, vascular permeability, cytokines/chemokines",[3],improved mechanical lung function
same,numbers of NK cells and NKT cells,[4]; 2.5 mg/kg per day,increased
same,numbers of NK cells and NKT cells,[4]; 5 mg/kg per day,not affected
same,number of T cells including T helper cells and cytotoxic T cells and of B cells,[4]; daily 5 mg/kg,significantly reduced
same,FFU values (viral activity of SARS-CoV-2 in vitro),[5]; 0.25-5 μM,reduce the FFU values in a dose dependent manner
same,IC50,"[5]; Severe acute respiratory syndrome coronavirus 2, Vero C1008, Vero E6 cells, 5 μM values excluded, read-out: IC50 of inhibition of viral activity",789 nM
same,autoantigen-specific Th17 cell phenotype (IL-17),[6]; dose-dependently,reduced
same,IL-6 production and secretion,[6],decreased
same,production of IL-10,[6],increased
same,release of pro-inflammatory cytokines,human mononuclear cells,suppressed
same,CD83 dendritic cell activation marker,[7],suppresses
same,expression of MDSCs,[8],induces
same,"pro-inflammatory cytokines such as IL-2, TNF-α, and IL-6",[8],reduction
same,log P,[9],about 6.1
same,maximum plasma concentration,[10],"14,000 ng/ml"
same,effective concentration for suppressive effect on IL-6 secretion,IL-6 secretion,~5 µM
same,effect on induced kidney injury (Treg17/Th17 levels),[11],renoprotective
